Measurements taken from patent publication US5189058A, “Iminodicarbonic, iminodicarbonodithioic, and thiocarbonylcarbamic acid esters useful as ACAT inhibitors” (Warner-Lambert Company, priority 1991, dated 1993).
Like-named read-outs stand apart in the source and are kept apart here.

Assays:
[1] = biological target: T1, acyl-CoA: cholesterol acyltransferase (ACAT) (Oryctolagus cuniculus, UniProt G1SFD9); test: in vitro ACAT inhibition (radiolabeled cholesterol oleate formed from radiolabeled oleic acid, rabbit intestinal microsomes); format: biochemical
T1 sequence (G1SFD9 1-524): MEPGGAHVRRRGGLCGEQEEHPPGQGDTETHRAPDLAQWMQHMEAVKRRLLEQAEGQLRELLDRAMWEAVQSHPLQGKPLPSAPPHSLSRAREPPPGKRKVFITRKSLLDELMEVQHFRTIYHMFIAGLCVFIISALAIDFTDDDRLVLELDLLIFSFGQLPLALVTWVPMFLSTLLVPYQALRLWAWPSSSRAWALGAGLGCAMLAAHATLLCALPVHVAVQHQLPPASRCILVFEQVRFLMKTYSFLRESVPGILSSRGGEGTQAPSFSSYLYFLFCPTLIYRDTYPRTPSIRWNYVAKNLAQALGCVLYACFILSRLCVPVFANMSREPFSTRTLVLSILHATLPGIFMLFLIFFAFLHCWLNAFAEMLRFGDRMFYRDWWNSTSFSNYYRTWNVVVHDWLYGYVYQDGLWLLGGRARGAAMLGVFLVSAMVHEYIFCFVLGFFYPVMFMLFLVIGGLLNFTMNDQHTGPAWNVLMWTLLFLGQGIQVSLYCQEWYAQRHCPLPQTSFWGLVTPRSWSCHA
Method: The ability of representative compounds of the present invention to inhibit ACAT was measured using an in vitro test more fully described in F. J. Field and R. G. Salone, Biochemica et Biophysica 712:557-570 (1982). The test assesses the ability of a test compound to inhibit the acylation of cholesterol by oleic acid by measuring the amount of radiolabeled cholesterol oleate formed from radiolabeled oleic acid in a tissue preparation containing rabbit intestinal microsomes.

[2] = in vivo screen designated APCC (blood cholesterol in rats on high fat, high cholesterol diet); details: Rattus norvegicus, 16 h, male Sprague-Dawley rats, 30 mg/kg in CMC/Tween at 4 PM, PCC diet (0.5% cholic acid) overnight, sacrificed 8 AM, read-out: % Change (mg/dl)
Method: In one in vivo screen designated APCC, male Sprague-Dawley rats (200 to 225 g) were randomly divided into treatment groups and dosed at 4 PM with either vehicle (CMC/Tween) or suspensions of compounds in vehicle at a dose of 30 mg/kg. The normal chow diet was then replaced with a high fat, high cholesterol diet (designated PCC) containing 0.5% cholic acid. The rats consumed this diet ad libitum during the night and were sacrificed at 8 AM to obtain blood samples for cholesterol analysis using standard procedures. Statistical differences between mean cholesterol values for the same vehicle were determined using analysis of variance followed by Fisher's least significant test.

[3] = rabbit intestinal microsomes, acylation of cholesterol by oleic acid, read-out: IC50

SMILES	IC50 [1, 3] [µM]	IC50 [1] [µM]	change in vivo at 30 mg/kg [2] [%]
O=C(NC(=O)OC(c1ccccc1)c1ccccc1)OC(c1ccccc1)c1ccccc1 [Example 36, Iminodicarbonic acid, di(diphenylmethyl)ester]	> 5	–	–
CCCCCCCCCCCCC(C)OC(=O)N(C)C(=O)Oc1c(C(C)C)cccc1C(C)C (stereo not drawn) [Example 37, Methyliminodicarbonic, 2,6-bis(1-methylethyl)phenyl 1-methyltridecyl ester]	–	0.6	-8
CC(C)c1cccc(C(C)C)c1OC(=O)NC(=O)Oc1c(C(C)C)cccc1C(C)C [Example 24, Iminodicarbonic acid, di[2,6-bis(1-methylethyl)phenyl]ester]	–	–	-43
CCCCCCCCCCCCC(C)(C)OC(=O)NC(=O)Oc1c(C(C)C)cccc1C(C)C [Example 4, Iminodicarbonic acid, 2,6-bis(1-methylethyl)phenyl 1,1-dimethyltridecyl ester]	–	–	-51
CCCCCCCCCCCCC(C)OC(=O)NC(=O)Oc1c(C(C)C)cccc1C(C)C (racemic) [Example 3, Iminodicarbonic acid, 2,6-bis(1-methylethyl)phenyl 1-methyltridecyl ester, (±)]	–	–	-50
CCCCC(C)(C)OC(=O)NC(=O)Oc1c(C(C)C)cccc1C(C)C [Example 5, Iminodicarbonic acid, 2,6-bis(1-methylethyl)phenyl 1,1-dimethylpentyl ester]	–	–	-29
CCCCCCCC(C)OC(=O)NC(=O)Oc1c(C(C)C)cccc1C(C)C (stereo not drawn) [Example 13]	–	–	-56
CCCCCCCCCCCOC(=O)NC(=O)Oc1c(C(C)C)cccc1C(C)C [Example 11, Iminodicarbonic acid, 2,6-bis(1-methylethyl)phenyl undecyl ester]	–	–	-65
CCCCCCCCCCCCOC(=O)NC(=O)Oc1c(OC)cc(OC)cc1OC [Example 29, Iminodicarbonic acid, dodecyl 2,4,6-trimethoxyphenyl ester]	> 5	–	–
CCCCC[C@H](C)OC(=O)NC(=O)Oc1c(C(C)C)cccc1C(C)C [Example 7, Iminodicarbonic acid, 2,6-bis(1-methylethyl)phenyl 1-methylhexyl ester (S)]	–	–	-25
CCCCCCCCCCOC(=O)NC(=O)Oc1c(C(C)C)cccc1C(C)C [Example 17, Iminodicarbonic acid, 2,6-bis(1-methylethyl)phenyl decyl ester]	–	–	-43
CCCCCCOC(=O)NC(=O)Oc1c(C(C)C)cccc1C(C)C [Example 6, Iminodicarbonic acid, 2,6-bis(1-methylethyl)phenyl hexyl ester]	0.093	–	-38
COC(=O)C(OC(=O)NC(=O)Oc1c(C(C)C)cccc1C(C)C)c1ccccc1 (stereo not drawn) [Example 25, α-[[[[[2,6-Bis(1-methylethyl)phenoxy]carbonyl]amino]carbonyl]oxy]benzeneacetic acid, methyl ester]	–	–	-12
CCCCCCCCOC(=O)NC(=O)Oc1c(C(C)C)cccc1C(C)C [Example 16, Iminodicarbonic acid, 2,6-bis(1-methylethyl)phenyl octyl ester]	–	–	-47
CCCCCCCCCCSC(=O)NC(=O)Oc1c(C(C)C)cccc1C(C)C [Example 20, [(Decylthio)carbonyl]carbamic acid, 2,6-bis(1-methylethyl)phenyl ester]	–	–	-52
CCCCCCCCC(C)OC(=O)NC(=O)Oc1c(C(C)C)cccc1C(C)C (stereo not drawn) [Example 14, Iminodicarbonic acid, 2,6-bis(1-methylethyl)phenyl 1-methylnonyl ester]	–	–	-54
CCCCCCCCCCCCC(C)OC(=O)NC(=O)Oc1ccc(F)cc1F (stereo not drawn) [Example 30, Iminodicarbonic acid, 2,4-difluorophenyl 1-methyltridecyl ester]	> 5	–	-15

SMILES	IC50 [1, 3] [µM]	IC50 [1] [µM]	change in vivo at 30 mg/kg [2] [%]
CCCCCCCCCCCCOC(=O)NC(=O)Sc1c(C(C)C)cccc1C(C)C [Example 34, [[[2,6-Bis(1-methylethyl)phenyl]thio]carbonyl]carbamic acid, dodecyl ester]	> 5	–	–
CC(C)c1cccc(C(C)C)c1OC(=O)NC(=O)Oc1ccccc1 [Example 27, Iminodicarbonic acid, 2,6-bis(1-methylethyl)phenyl phenyl ester]	3.7	–	–
O=C(NC(=O)Oc1c(-c2ccccc2)cccc1-c1ccccc1)Oc1c(-c2ccccc2)cccc1-c1ccccc1 [Example 32, Iminodicarbonic acid, di[1,1'[3',1"-terphenyl]-2-yl]ester]	10.4	–	-36
CC(C)c1cccc(C(C)C)c1OC(=O)NC(=O)Sc1ccccc1 [Example 28]	1.8	–	-19
CCCCCCCCCCC(C)OC(=O)NC(=O)Oc1c(C(C)C)cccc1C(C)C (stereo not drawn) [Example 15, Iminodicarbonic acid, 2,6-bis(1-methylethyl)phenyl 1-methylundecyl ester]	–	–	-66
CC(C)c1cccc(C(C)C)c1OC(=O)NC(=O)Oc1cccc2ccccc12 [Example 26, Iminodicarbonic acid, [2,6-bis(1-methylethyl)phenyl](1-naphthalenyl) ester]	1.2	–	-11
CCCCCC(C)OC(=O)NC(=O)Oc1c(C(C)C)cccc1C(C)C (racemic) [Example 9, Iminodicarbonic acid, 2,6-bis(1-methylethyl)phenyl 1-methylhexyl ester, (± )]	–	–	-60
CCCCCCCCCCCCOC(=O)NC(=O)Oc1c(C(C)C)cccc1C(C)C [Example 2, Iminodicarbonic acid, dodecyl 2,6-bis(1-methylethyl)phenyl ester]	–	–	-52
CC(C)c1cccc(C(C)C)c1OC(=O)NC(=O)Sc1c(C(C)C)cccc1C(C)C [Example 19, 2,6-Bis[[(1-methylethyl)phenyl]thio]carbamic acid, 2,6-bis(1-methylethyl)phenyl ester]	–	–	-20
CCCCCCCCCCCCCCCCCCOC(=O)NC(=O)Oc1c(C(C)C)cccc1C(C)C [Example 12, Iminodicarbonic acid, 2,6-bis(1-methylethyl)phenyl octadecyl ester]	1.2	–	-34
CCCCCCCCCCCCSC(=O)NC(=O)Sc1c(C(C)C)cccc1C(C)C [Example 31, Iminodicarbonodithioic acid, 5-[2,6-bis(1-methylethyl)phenyl] S'-dodecyl ester]	> 1	–	-35
CC(C)c1cccc(C(C)C)c1OC(=O)NC(=O)OC(c1ccccc1)c1ccccc1 [Example 1, Iminodicarbonic acid, 2,6-bis(1-methylethyl)phenyldiphenylmethyl ester]	–	–	-13
CCCCCCCCCCCCCCCCOC(=O)NC(=O)Oc1c(C(C)C)cccc1C(C)C [Example 10, Iminodicarbonic acid, 2,6-bis(1-methylethyl)phenyl hexadecyl ester]	0.05	–	-70
CCCCCCCCCCCCSC(=O)NC(=O)Oc1c(C(C)C)cccc1C(C)C [Example 18, [(Dodecylthio)carbonyl] -carbamic acid, 2,6-bis(1-methylethyl)phenyl ester]	0.028	–	-63
CC(C)(C)c1cccc(C(C)(C)C)c1OC(=O)NC(=O)Oc1c(C(C)(C)C)cccc1C(C)(C)C [Example 35, Iminodicarbonic acid bis[2,6-bis(1,1-dimethylethyl)phenyl]ester]	–	–	-4
CCCCC[C@@H](C)OC(=O)NC(=O)Oc1c(C(C)C)cccc1C(C)C [Example 8, Iminodicarbonic acid, 2,6-bis(1-methylethyl)phenyl 1-methylhexyl ester (R)]	–	–	-49
Cc1cccc(C)c1SC(=O)NC(=O)Sc1c(C)cccc1C [Example 33, Iminodicarbonodithioic acid, S,S'-bis[2,6-bis(methyl)phenyl]ester]	0.23	–	-33
